Measurements reported in the supplement of paper PMC10307832.

What was measured:
Test in all cases: relative viability (nuclei count vs DMSO), 5 days (fraction); higher = more cells survive
[1] = tested on: ABC-1
In short: (§1)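 Cells from lung cancer lines were seeded into 1536-well plates and, one day later, dosed by pin tool. Treatments were either a single drug or a fixed dose of an anchor drug with five library-drug doses (not always all listed) in √10 steps. After 5 days, nuclei were stained in a one-step fixation (final 0.05% Triton X-100, 1% formaldehyde, 1 ug/ml Hoechst) and counted on 4× images, and relative viability is the treated-to-vehicle nuclei ratio, as the median of duplicate plates.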

[2] = tested on: BEN
In short: as §1

[3] = tested on: EPLC-272H
In short: as §1

[4] = tested on: HCC-827
In short: as §1

[5] = tested on: HOP-62
In short: as §1

[6] = tested on: LU99A
In short: as §1

[7] = tested on: NCI-H1355
In short: as §1

[8] = tested on: NCI-H1666
In short: as §1

[9] = tested on: NCI-H1792
In short: as §1

[10] = tested on: NCI-H1975
In short: as §1

[11] = tested on: NCI-H2170
In short: as §1

[12] = tested on: NCI-H23
In short: as §1

[13] = tested on: NCI-H2405
In short: as §1

[14] = tested on: NCI-H3122
In short: as §1

[15] = tested on: NCI-H322M
In short: as §1

[16] = tested on: NCI-H358
In short: as §1

[17] = tested on: NCI-H520
In short: as §1

[18] = tested on: NCI-H596
In short: as §1

[19] = tested on: NCI-H647
In short: as §1

[20] = tested on: NCI-H727
In short: as §1

[21] = tested on: NCI-H838
In short: as §1

[22] = tested on: PC-14
In short: as §1

[23] = tested on: UMC-11
In short: as §1

## O=C(O)CCCCC(CCSCc1ccccc1)SCc1ccccc1 (stereo not given) [CPI-613] + CS(=O)(=O)N1CCN(Cc2cc3nc(-c4cccc5[nH]ncc45)nc(N4CCOCC4)c3s2)CC1 [Pictilisib] (partner 1 µM)
[1]; first compound 5 µM
  relative viability: 0.771
[1]; first compound 15.81 µM
  relative viability: 0.68
[1]; first compound 50 µM
  relative viability: 0.807
[1]; first compound 158.11 µM
  relative viability: 0.384
[1]; first compound 500 µM
  relative viability: 0.246
[2]; first compound 5 µM
  relative viability: 0.527
[2]; first compound 15.81 µM
  relative viability: 0.423
[2]; first compound 50 µM
  relative viability: 0.503
[2]; first compound 158.11 µM
  relative viability: 0.452
[2]; first compound 500 µM
  relative viability: 0.495
[3]; first compound 5 µM
  relative viability: 0.251
[3]; first compound 15.81 µM
  relative viability: 0.28
[3]; first compound 50 µM
  relative viability: 0.369
[3]; first compound 158.11 µM
  relative viability: 0.246
[3]; first compound 500 µM
  relative viability: 0.339
[4]; first compound 5 µM
  relative viability: 0.94
[4]; first compound 15.81 µM
  relative viability: 0.964
[4]; first compound 50 µM
  relative viability: 0.887
[4]; first compound 158.11 µM
  relative viability: 0.833
[4]; first compound 500 µM
  relative viability: 0.79
[5]; first compound 5 µM
  relative viability: 0.526
[5]; first compound 15.81 µM
  relative viability: 0.7
[5]; first compound 50 µM
  relative viability: 0.704
[5]; first compound 158.11 µM
  relative viability: 0.496
[5]; first compound 500 µM
  relative viability: 0.0332
[6]; first compound 5 µM
  relative viability: 0.289
[6]; first compound 15.81 µM
  relative viability: 0.322
[6]; first compound 50 µM
  relative viability: 0.339
[6]; first compound 158.11 µM
  relative viability: 0.256
[6]; first compound 500 µM
  relative viability: 0.0798
[7]; first compound 5 µM
  relative viability: 0.417
[7]; first compound 15.81 µM
  relative viability: 0.389
[7]; first compound 50 µM
  relative viability: 0.374
[7]; first compound 158.11 µM
  relative viability: 0.29
[7]; first compound 500 µM
  relative viability: 0.0921
[8]; first compound 5 µM
  relative viability: 0.512
[8]; first compound 15.81 µM
  relative viability: 0.351
[8]; first compound 50 µM
  relative viability: 0.404
[8]; first compound 158.11 µM
  relative viability: 0.15
[8]; first compound 500 µM
  relative viability: 0.0576
[9]; first compound 5 µM
  relative viability: 0.29
[9]; first compound 15.81 µM
  relative viability: 0.229
[9]; first compound 50 µM
  relative viability: 0.272
[9]; first compound 158.11 µM
  relative viability: 0.23
[9]; first compound 500 µM
  relative viability: 0.207
[10]; first compound 5 µM
  relative viability: 0.292
[10]; first compound 15.81 µM
  relative viability: 0.225
[10]; first compound 50 µM
  relative viability: 0.314
[10]; first compound 158.11 µM
  relative viability: 0.258
[10]; first compound 500 µM
  relative viability: 0.0574
[11]; first compound 5 µM
  relative viability: 0.293
[11]; first compound 15.81 µM
  relative viability: 0.307
[11]; first compound 50 µM
  relative viability: 0.256
[11]; first compound 158.11 µM
  relative viability: 0.293
[11]; first compound 500 µM
  relative viability: 0.0903
[12]; first compound 5 µM
  relative viability: 0.478
[12]; first compound 15.81 µM
  relative viability: 0.455
[12]; first compound 50 µM
  relative viability: 0.457
[12]; first compound 158.11 µM
  relative viability: 0.153
[12]; first compound 500 µM
  relative viability: 0.009
[13]; first compound 5 µM
  relative viability: 0.493
[13]; first compound 15.81 µM
  relative viability: 0.331
[13]; first compound 50 µM
  relative viability: 0.425
[13]; first compound 158.11 µM
  relative viability: 0.388
[13]; first compound 500 µM
  relative viability: 0.421
[14]; first compound 5 µM
  relative viability: 0.587
[14]; first compound 15.81 µM
  relative viability: 0.614
[14]; first compound 50 µM
  relative viability: 0.591
[14]; first compound 158.11 µM
  relative viability: 0.605
[14]; first compound 500 µM
  relative viability: 0.031
[15]; first compound 5 µM
  relative viability: 0.511
[15]; first compound 15.81 µM
  relative viability: 0.426
[15]; first compound 50 µM
  relative viability: 0.496
[15]; first compound 158.11 µM
  relative viability: 0.469
[15]; first compound 500 µM
  relative viability: 0.53
[16]; first compound 5 µM
  relative viability: 0.355
[16]; first compound 15.81 µM
  relative viability: 0.292
[16]; first compound 50 µM
  relative viability: 0.278
[16]; first compound 158.11 µM
  relative viability: 0.255
[16]; first compound 500 µM
  relative viability: 0.0276
[17]; first compound 5 µM
  relative viability: 0.271
[17]; first compound 15.81 µM
  relative viability: 0.279
[17]; first compound 50 µM
  relative viability: 0.286
[17]; first compound 158.11 µM
  relative viability: 0.172
[17]; first compound 500 µM
  relative viability: 0.134
[18]; first compound 5 µM
  relative viability: 0.423
[18]; first compound 15.81 µM
  relative viability: 0.442
[18]; first compound 50 µM
  relative viability: 0.435
[18]; first compound 158.11 µM
  relative viability: 0.339
[18]; first compound 500 µM
  relative viability: 0.0372
[19]; first compound 5 µM
  relative viability: 0.58
[19]; first compound 15.81 µM
  relative viability: 0.315
[19]; first compound 50 µM
  relative viability: 0.384
[19]; first compound 158.11 µM
  relative viability: 0.424
[19]; first compound 500 µM
  relative viability: 0.412
[20]; first compound 5 µM
  relative viability: 0.359
[20]; first compound 15.81 µM
  relative viability: 0.348
[20]; first compound 50 µM
  relative viability: 0.348
[20]; first compound 158.11 µM
  relative viability: 0.33
[20]; first compound 500 µM
  relative viability: 0.0223
[21]; first compound 5 µM
  relative viability: 0.483
[21]; first compound 15.81 µM
  relative viability: 0.289
[21]; first compound 50 µM
  relative viability: 0.392
[21]; first compound 158.11 µM
  relative viability: 0.299
[21]; first compound 500 µM
  relative viability: 0.0565
[22]; first compound 5 µM
  relative viability: 0.747
[22]; first compound 15.81 µM
  relative viability: 0.677
[22]; first compound 50 µM
  relative viability: 0.637
[22]; first compound 158.11 µM
  relative viability: 0.725
[22]; first compound 500 µM
  relative viability: 0.526
[23]; first compound 5 µM
  relative viability: 0.804
[23]; first compound 15.81 µM
  relative viability: 0.698
[23]; first compound 50 µM
  relative viability: 0.496
[23]; first compound 158.11 µM
  relative viability: 0.642
[23]; first compound 500 µM
  relative viability: 0.104
